Measured values published in patent US9403806B1, “Cognition enhancing compounds and compositions, methods of making, and methods of treating” (NeuroSolis, Inc., priority 2010, dated 2016).

Assays:
Assay type in all cases: cell-based
[1] = molecular target: T1, human muscarinic M1 receptors (Homo sapiens, UniProt P11229); experiment: IP production in A9L cells with human M1 receptors (IPOne TR-FRET), Example 28; conditions: for huM1/A9L Smax: percentage of maximal stimulation by carbachol; for huM1/A9L ED50 relative to CCh*: potency relative to carbachol at its EC50, semi-quantitative; for potency and efficacy at M1 muscarinic receptors (in words): huM1/A9L
T1 construct: host or cells: A9L cells
T1 sequence (P11229 1-460): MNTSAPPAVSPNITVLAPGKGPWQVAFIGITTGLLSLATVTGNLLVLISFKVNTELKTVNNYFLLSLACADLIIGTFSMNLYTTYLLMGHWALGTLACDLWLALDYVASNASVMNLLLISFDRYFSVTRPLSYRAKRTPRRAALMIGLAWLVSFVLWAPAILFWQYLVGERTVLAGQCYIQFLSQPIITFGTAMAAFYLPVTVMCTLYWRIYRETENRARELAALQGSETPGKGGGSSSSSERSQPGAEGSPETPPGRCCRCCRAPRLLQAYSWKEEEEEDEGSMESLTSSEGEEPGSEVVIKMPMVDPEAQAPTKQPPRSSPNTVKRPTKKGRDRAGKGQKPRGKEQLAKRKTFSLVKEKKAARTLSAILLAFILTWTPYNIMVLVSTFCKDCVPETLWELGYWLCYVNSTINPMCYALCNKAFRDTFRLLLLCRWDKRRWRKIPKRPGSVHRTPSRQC
Description: (§1) Muscarinic M1 and M3 agonist activity was evaluated by measuring the stimulation of inositol phosphate (IP) production in the presence of lithium chloride from A9L cells transfected with expression plasmids containing human muscarinic M1 and M3 receptors, respectively. The cell lines were a gift from Professor W Messer, and the methods were as described in Tejada F R et al. J. Med. Chem. 2006; 49: 7518-31 except that the assay was scaled down to run in 384 well plates, and IP was measured in the cell lysates using the non-isotopic IPOne TR-FRET assay (CIS-BIO, Inc).
(§2) Cells were grown to 90% confluence in 384 well hi-base plates (Greiner Bio-One), compounds were added at suitable concentrations in growth medium containing 10 mM LiCl, buffered with an extra 10 mM HEPES (pH7.4), and incubated for 60 minutes at 37° C. Cells were lysed and assayed for IP following the manufacturer's instructions.
(§3) The value for a full agonist is 100%, while partial agonists give values below 100%.

[2] = molecular target: T2, human muscarinic M3 receptors (Homo sapiens, UniProt P20309); experiment: IP production in A9L cells with human M3 receptors (IPOne TR-FRET), Example 28; conditions: for huM3/A9L Smax: percentage of maximal stimulation by carbachol; for huM3/A9L ED50 relative to CCh*: potency relative to carbachol at its EC50, semi-quantitative
T2 construct: host or cells: A9L cells
T2 sequence (P20309 whole entry): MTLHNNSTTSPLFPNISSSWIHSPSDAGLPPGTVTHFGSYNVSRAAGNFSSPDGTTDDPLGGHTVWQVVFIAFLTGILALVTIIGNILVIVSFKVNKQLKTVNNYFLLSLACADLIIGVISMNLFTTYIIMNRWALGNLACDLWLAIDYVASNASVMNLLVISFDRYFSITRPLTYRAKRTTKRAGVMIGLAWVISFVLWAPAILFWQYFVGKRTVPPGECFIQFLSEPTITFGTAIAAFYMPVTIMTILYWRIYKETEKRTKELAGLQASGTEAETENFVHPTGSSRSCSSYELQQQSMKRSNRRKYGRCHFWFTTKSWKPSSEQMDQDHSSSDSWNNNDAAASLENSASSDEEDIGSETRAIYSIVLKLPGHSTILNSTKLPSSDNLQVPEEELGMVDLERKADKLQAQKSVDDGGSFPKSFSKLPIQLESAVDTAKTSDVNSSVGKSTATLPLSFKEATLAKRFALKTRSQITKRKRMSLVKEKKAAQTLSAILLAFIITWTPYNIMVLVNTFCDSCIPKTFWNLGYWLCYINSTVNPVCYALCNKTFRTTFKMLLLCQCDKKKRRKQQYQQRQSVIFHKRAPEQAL
Description: as §1, §2, §3

[3] = molecular target: T1, human muscarinic M1 receptors; conditions: relative to the potency of carbachol at its EC50
Description: (§4) Muscarinic M1 and M3 agonist activity was evaluated by measuring the stimulation of inositol phosphate (IP) production in the presence of lithium chloride from A9L cells transfected with expression plasmids containing human muscarinic M1 and M3 receptors, respectively. The cell lines were a gift from Professor William Messer, and the methods were as described in Tejada et al. (J. Med. Chem. 2006; 49: 7518-31) except that the assay was scaled down to run in 384-well plates and the concentration of inositol-1-phosphate in the lysates was determined using the non-isotopic IP-One Terbium TR-FRET assay kit (Cisbio Bioassays, cat. #62IPAPEJ) according to the manufacturer's instructions.
as §2, with “384-well high-base, small-volume” for “384 well hi-base”, “(pH=7.4),” for “(pH7.4),”
as §3

[4] = molecular target: T2, human muscarinic M3 receptors; conditions: relative to the potency of carbachol at its EC50
Description: as §4
as §2, with “384-well high-base, small-volume” for “384 well hi-base”, “(pH=7.4),” for “(pH7.4),”
as §3

Compound | huM1/A9L Smax [1] [%] | huM1/A9L ED50 relative to CCh* [1] | huM3/A9L Smax [2] [%] | huM3/A9L ED50 relative to CCh* [2] | potency and efficacy at M1 muscarinic receptors (in words) [1] | huM1/A9L Potency relative to carbachol [3] | huM3/A9L Potency relative to carbachol [4]
Cc1noc([C@H]2CNCC[C@H]2C)n1 [Compound 22] | 7 | inactive | 15 | inactive |  |  | 
Cc1noc([C@H]2CNC[C@@H](C)C2)n1 [Compound 20] | 9 | inactive | 20 | inactive |  |  | 
Cc1noc([C@@H]2CNC[C@@H](C)C2)n1 [Compound 21] | 18 | inactive | 14 | inactive |  |  | 
Cc1noc([C@@H]2CCCN[C@@H]2C)n1 [Compound 24] | 41 | −− (−− potency <0.1x CCh) | 32 | inactive |  |  | 
Nc1noc(C2CCCNC2)n1 (stereo not drawn) [Compound 27, 3-Amino-5-(piperidin-3-yl)-1,2,4-oxadiazole] | 97 | + (+ potency 2-10x CCh) | 20 | +/− (+/− potency 0.5-2x CCh) |  |  | 
c1nsc(C2CCCNC2)n1 (stereo not drawn) [Compound 12b, 5-(piperidin-3-yl)-1,2,4-thiadiazol] | 100 | − (− potency <0.5-0.1x CCh) | 60 | −− (−− potency <0.1x CCh) |  |  | 
Cc1noc([C@@H]2CNCC[C@H]2C)n1 [Compound 23] | 23 | inactive | 19 | inactive |  |  | 
Cc1noc(C2CCCN(C)C2)n1 (stereo not drawn) [Compound 5, 3-Methyl-5-(1-methylpiperidin-3-yl)-1,2,4-oxadiazole] | 20 | inactive | 20 | inactive | essentially inactive |  | 
Cc1noc(C23CNCC2C3)n1 (racemic) [Compound 121, 5-(4,4-d2-3-Azabicyclo[3.1.0]hexan-1-yl)-3-methyl-1,2,4-oxadiazole] |  |  |  |  |  | 1.10 | 0.45
Cc1noc(C2CCNC2)n1 (stereo not drawn) [Compound 31, 3-methyl-5-(pyrrolidin-3-yl)-1,2,4-oxadiazole] | 113 | + (+ potency 2-10x CCh) | 60 | − (− potency <0.5-0.1x CCh) |  |  | 
Cc1nsc(C2CCCNC2)n1.Cl (stereo not drawn) [Compound 12a, 3-methyl-5-(piperidin-3-yl)-1,2,4-thiadiazole hydrochloride] | 101 | + (+ potency 2-10x CCh) | 58 | + (+ potency 2-10x CCh) |  |  | 
Cc1noc([C@H]2CCCN[C@@H]2C)n1 [Compound 25] | 3 | inactive | 20 | inactive |  |  | 
Cc1noc(C2CCC(C)NC2)n1 (stereo not drawn) [Compound 18, 3-Methyl-5-(6-methylpiperidin-3-yl)-1,2,4-oxadiazole] | 14 | inactive | 18 | inactive |  |  | 
Cc1noc([C@H]2CC[C@H](C)NC2)n1 [Compound 19] | 15 | inactive | 34 | inactive |  |  | 
CCc1noc(C2CCCNC2)n1 (stereo not drawn) [Compound 38, 3-ethyl-5-(piperidin-3-yl)-1,2,4-oxadiazo1e] | 15 | inactive | <14 | inactive | essentially inactive |  | 
